Measured values as given in ChEMBL document CHEMBL4177526, “Discovery and structure activity relationship of the first potent cryptosporidium FIKK kinase inhibitor” (Bioorg Med Chem, 2017).

Assays:
[1] = target: Protein kinase C alpha type (Homo sapiens) (UniProt P17252); experiment: Inhibition of human PKCalpha (1 to 672 residues) assessed as residual activity at 500 nM in presence of 33P-ATP by filter binding assay relative to control
[2] = test system: Ribosomal protein S6 kinase beta-1 (Homo sapiens), P23443 [T412E]; experiment: Inhibition of human S6K1 T412E mutant (1 to 421 residues) assessed as residual activity at 500 nM in presence of 33P-ATP by filter binding assay relative to control
[3] = target: Homeodomain-interacting protein kinase 2 (Homo sapiens) (UniProt Q9H2X6); experiment: Inhibition of human HIPK2 (165 to 564 residues) assessed as residual activity at 500 nM in presence of 33P-ATP by filter binding assay relative to control
[4] = target: Serine/threonine-protein kinase tousled-like 1 (Homo sapiens) (UniProt Q9UKI8); experiment: Inhibition of human TLK1 (1 to 766 residues) assessed as residual activity at 500 nM in presence of 33P-ATP by filter binding assay relative to control
[5] = target: AMPK alpha1/beta2/gamma1 (Homo sapiens) (UniProt O43741+P54619+Q13131); experiment: Inhibition of human AMPKalpha1 (11 to 559 residues)/beta2 (1 to 272 residues)/gamma1 (1 to 331 residues) assessed as residual activity at 500 nM in presence of 33P-ATP by filter binding assay relative to control; type: protein-complex assay
[6] = target: 3-phosphoinositide-dependent protein kinase 1 (Homo sapiens) (UniProt O15530); experiment: Inhibition of human PDK1 (52 to 556 residues) assessed as residual activity at 500 nM in presence of 33P-ATP by filter binding assay relative to control
[7] = target: Dual specificity tyrosine-phosphorylation-regulated kinase 2 (Homo sapiens) (UniProt Q92630); experiment: Inhibition of human DYRK2 (3 to 528 residues) assessed as residual activity at 500 nM in presence of 33P-ATP by filter binding assay relative to control
Dual specificity tyrosine-phosphorylation-regulated kinase 2 (Homo sapiens), sequence (Q92630 whole entry, the tested form may be a part): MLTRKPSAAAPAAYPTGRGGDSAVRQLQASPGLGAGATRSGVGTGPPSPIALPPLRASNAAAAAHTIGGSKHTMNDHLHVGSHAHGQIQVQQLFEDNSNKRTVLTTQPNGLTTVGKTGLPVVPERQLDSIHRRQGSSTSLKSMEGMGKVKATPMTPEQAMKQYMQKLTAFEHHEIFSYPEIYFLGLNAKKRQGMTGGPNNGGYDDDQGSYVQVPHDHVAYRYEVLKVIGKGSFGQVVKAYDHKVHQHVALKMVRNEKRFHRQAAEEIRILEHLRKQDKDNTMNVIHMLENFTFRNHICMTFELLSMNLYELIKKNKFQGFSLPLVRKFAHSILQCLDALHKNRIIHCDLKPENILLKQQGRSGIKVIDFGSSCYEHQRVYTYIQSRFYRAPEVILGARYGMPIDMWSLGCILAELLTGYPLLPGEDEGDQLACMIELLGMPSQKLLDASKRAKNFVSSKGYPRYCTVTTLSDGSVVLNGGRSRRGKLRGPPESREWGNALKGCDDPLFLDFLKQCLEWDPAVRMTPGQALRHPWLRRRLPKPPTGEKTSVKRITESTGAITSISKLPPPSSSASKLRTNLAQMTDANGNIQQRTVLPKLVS

[8] = target: Serine/threonine-protein kinase WNK1 (Homo sapiens) (UniProt Q9H4A3); experiment: Inhibition of human WNK1 (1 to 661 residues) assessed as residual activity at 500 nM in presence of 33P-ATP by filter binding assay relative to control
[9] = target: Calcium/calmodulin-dependent protein kinase type 1 (Homo sapiens) (UniProt Q14012); experiment: Inhibition of human CAMK1 (2 to 369 residues) assessed as residual activity at 500 nM in presence of 33P-ATP by filter binding assay relative to control
[10] = target: Tau-tubulin kinase 1 (Homo sapiens) (UniProt Q5TCY1); experiment: Inhibition of human TTBK1 (1 to 1321 residues) assessed as residual activity at 500 nM in presence of 33P-ATP by filter binding assay relative to control
Tau-tubulin kinase 1 (Homo sapiens), sequence (Q5TCY1 whole entry, the tested form may be a part): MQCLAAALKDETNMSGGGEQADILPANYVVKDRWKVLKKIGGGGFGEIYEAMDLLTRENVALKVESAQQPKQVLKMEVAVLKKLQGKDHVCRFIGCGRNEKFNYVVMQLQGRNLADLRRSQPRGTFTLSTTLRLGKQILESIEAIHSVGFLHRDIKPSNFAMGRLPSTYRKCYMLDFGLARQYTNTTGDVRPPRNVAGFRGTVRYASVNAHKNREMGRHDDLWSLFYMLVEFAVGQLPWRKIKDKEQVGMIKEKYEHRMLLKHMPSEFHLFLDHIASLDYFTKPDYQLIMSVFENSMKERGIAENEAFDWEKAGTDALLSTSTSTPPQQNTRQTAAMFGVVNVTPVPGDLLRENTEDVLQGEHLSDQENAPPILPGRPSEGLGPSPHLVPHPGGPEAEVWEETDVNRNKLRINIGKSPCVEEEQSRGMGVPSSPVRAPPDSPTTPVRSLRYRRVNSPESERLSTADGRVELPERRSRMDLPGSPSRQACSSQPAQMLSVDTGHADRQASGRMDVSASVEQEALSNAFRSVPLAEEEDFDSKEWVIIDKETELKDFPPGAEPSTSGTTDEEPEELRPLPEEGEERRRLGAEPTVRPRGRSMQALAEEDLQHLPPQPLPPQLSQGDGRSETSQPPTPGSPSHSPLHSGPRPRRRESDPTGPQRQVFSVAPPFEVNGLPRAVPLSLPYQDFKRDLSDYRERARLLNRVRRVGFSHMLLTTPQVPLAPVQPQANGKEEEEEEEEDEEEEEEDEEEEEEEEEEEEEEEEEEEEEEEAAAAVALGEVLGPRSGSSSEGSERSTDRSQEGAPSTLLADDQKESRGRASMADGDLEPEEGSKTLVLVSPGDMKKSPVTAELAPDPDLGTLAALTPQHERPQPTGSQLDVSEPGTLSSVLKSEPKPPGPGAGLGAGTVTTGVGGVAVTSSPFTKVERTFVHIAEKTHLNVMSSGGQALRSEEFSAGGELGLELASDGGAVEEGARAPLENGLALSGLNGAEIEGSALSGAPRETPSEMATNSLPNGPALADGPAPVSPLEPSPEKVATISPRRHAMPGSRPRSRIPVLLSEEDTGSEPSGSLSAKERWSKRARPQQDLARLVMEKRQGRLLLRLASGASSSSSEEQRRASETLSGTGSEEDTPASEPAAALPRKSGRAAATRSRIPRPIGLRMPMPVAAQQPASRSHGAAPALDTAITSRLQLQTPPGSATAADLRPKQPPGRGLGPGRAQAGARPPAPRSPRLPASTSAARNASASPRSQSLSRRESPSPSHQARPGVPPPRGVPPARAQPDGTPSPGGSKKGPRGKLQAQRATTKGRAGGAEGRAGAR

[11] = target: Serine/threonine-protein kinase 3 (Homo sapiens) (UniProt Q13188); experiment: Inhibition of human MST2 (2 to 491 residues) assessed as residual activity at 500 nM in presence of 33P-ATP by filter binding assay relative to control
[12] = target: Mitogen-activated protein kinase kinase kinase 5 (Homo sapiens) (UniProt Q99683); experiment: Inhibition of human ASK1 (670 to 950 residues) assessed as residual activity at 500 nM in presence of 33P-ATP by filter binding assay relative to control
[13] = target: Serine/threonine-protein kinase SIK2 (Homo sapiens) (UniProt Q9H0K1); experiment: Inhibition of human SIK2 (2 to 926 residues) assessed as residual activity at 500 nM in presence of 33P-ATP by filter binding assay relative to control
[14] = target: Homeodomain-interacting protein kinase 3 (Homo sapiens) (UniProt Q9H422); experiment: Inhibition of human HIPK3 (161 to 562 residues) assessed as residual activity at 500 nM in presence of 33P-ATP by filter binding assay relative to control
[15] = target: Ephrin type-A receptor 4 (Homo sapiens) (UniProt P54764); experiment: Inhibition of human EPHA4 (570 to 986 residues) assessed as residual activity at 500 nM in presence of 33P-ATP by filter binding assay relative to control
[16] = target: Protein kinase C gamma type (Homo sapiens) (UniProt P05129); experiment: Inhibition of human PKCgamma (1 to 697 residues) assessed as residual activity at 500 nM in presence of 33P-ATP by filter binding assay relative to control
[17] = target: Serine/threonine-protein kinase Chk2 (Homo sapiens) (UniProt O96017); experiment: Inhibition of human CHK2 (5 to 543 residues) assessed as residual activity at 500 nM in presence of 33P-ATP by filter binding assay relative to control
Serine/threonine-protein kinase Chk2 (Homo sapiens), sequence (O96017 whole entry, the tested form may be a part): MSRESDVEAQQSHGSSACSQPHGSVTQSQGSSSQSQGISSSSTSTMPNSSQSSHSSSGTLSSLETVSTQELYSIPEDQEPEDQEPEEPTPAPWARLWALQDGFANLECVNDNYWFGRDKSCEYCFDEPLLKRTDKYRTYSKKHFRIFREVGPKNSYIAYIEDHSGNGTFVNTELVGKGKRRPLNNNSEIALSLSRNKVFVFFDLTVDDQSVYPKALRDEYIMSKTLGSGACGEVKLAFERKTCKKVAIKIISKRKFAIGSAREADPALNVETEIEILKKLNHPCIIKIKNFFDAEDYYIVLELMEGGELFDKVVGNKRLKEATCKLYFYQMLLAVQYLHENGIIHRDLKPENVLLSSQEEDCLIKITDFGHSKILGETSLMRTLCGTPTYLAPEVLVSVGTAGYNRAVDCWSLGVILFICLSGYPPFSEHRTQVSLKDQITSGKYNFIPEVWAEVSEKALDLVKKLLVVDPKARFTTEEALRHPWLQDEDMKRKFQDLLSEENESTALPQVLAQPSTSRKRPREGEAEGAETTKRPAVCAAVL

[18] = target: Serine/threonine-protein kinase pim-2 (Homo sapiens) (UniProt Q9P1W9); experiment: Inhibition of human PIM2 (2 to 334 residues) assessed as residual activity at 500 nM in presence of 33P-ATP by filter binding assay relative to control
Serine/threonine-protein kinase pim-2 (Homo sapiens), sequence (Q9P1W9 whole entry, looked up, the tested form may be a part): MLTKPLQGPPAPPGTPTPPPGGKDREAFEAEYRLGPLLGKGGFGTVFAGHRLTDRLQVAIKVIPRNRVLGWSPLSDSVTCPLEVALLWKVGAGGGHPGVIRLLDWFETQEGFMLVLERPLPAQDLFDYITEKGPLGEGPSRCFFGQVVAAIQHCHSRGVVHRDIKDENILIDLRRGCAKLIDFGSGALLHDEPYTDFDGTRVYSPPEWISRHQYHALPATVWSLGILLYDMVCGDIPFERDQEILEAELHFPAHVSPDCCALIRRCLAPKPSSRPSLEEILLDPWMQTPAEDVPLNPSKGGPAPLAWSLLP

[19] = target: Platelet-derived growth factor receptor alpha (Homo sapiens) (UniProt P16234); experiment: Inhibition of human PDGFRalpha (551 to […] residues) assessed as residual activity at 500 nM in presence of 33P-ATP by filter binding assay relative to control
Platelet-derived growth factor receptor alpha (Homo sapiens), sequence (P16234 whole entry, the tested form may be a part, canonical isoform): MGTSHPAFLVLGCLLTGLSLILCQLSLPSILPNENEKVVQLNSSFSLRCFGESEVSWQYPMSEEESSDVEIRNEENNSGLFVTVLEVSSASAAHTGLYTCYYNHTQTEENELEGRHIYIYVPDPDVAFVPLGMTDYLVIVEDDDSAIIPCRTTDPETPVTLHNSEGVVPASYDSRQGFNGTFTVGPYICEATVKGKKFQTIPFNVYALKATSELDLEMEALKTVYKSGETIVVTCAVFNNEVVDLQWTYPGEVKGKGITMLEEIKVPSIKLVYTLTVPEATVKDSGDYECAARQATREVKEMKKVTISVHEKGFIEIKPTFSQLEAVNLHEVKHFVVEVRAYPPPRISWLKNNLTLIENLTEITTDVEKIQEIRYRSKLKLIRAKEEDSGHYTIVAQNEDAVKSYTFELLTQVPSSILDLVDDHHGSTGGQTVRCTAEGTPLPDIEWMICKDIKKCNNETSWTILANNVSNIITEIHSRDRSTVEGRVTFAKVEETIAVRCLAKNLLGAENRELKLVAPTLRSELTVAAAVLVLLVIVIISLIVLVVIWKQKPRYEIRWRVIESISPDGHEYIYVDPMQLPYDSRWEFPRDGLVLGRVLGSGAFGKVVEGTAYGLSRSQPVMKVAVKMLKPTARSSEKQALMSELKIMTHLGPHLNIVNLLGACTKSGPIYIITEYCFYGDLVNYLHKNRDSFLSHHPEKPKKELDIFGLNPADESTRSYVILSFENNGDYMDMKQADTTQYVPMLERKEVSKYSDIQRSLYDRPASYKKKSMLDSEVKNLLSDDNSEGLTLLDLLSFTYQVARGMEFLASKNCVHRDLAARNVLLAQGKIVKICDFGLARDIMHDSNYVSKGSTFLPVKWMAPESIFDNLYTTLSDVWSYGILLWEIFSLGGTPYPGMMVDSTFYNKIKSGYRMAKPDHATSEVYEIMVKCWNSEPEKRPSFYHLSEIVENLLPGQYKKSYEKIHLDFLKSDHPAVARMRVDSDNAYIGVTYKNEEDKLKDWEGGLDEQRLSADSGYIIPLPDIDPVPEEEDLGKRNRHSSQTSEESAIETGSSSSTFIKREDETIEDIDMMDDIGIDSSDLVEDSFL

[20] = target: Casein kinase I isoform delta (Homo sapiens) (UniProt P48730); experiment: Inhibition of human CK1delta (1 to 415 residues) assessed as residual activity at 500 nM in presence of 33P-ATP by filter binding assay relative to control
Casein kinase I isoform delta (Homo sapiens), sequence (P48730 whole entry, looked up, the tested form may be a part, canonical isoform): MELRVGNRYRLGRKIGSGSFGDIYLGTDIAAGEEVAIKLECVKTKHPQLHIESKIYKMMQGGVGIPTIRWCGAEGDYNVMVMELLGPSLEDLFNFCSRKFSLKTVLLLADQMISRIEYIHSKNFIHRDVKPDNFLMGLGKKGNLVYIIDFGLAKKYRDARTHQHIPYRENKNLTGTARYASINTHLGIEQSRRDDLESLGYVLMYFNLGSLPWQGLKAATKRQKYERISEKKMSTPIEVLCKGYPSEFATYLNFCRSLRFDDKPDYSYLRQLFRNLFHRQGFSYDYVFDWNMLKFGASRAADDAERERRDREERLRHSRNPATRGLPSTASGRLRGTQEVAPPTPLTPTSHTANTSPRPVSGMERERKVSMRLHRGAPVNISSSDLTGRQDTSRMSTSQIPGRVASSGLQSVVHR

[21] = target: Tyrosine-protein kinase ZAP-70 (Homo sapiens) (UniProt P43403); experiment: Inhibition of human ZAP70 (1 to 619 residues) assessed as residual activity at 500 nM in presence of 33P-ATP by filter binding assay relative to control
[22] = target: Tyrosine-protein kinase ABL1 (Homo sapiens) (UniProt P00519); experiment: Inhibition of human ABL (118 to 535 residues) assessed as residual activity at 500 nM in presence of 33P-ATP by filter binding assay relative to control
[23] = target: Vascular endothelial growth factor receptor 2 (Homo sapiens) (UniProt P35968); experiment: Inhibition of VEGFR2 (unknown origin) assessed as residual activity at 500 nM relative to control
TAK1/TAB1 (Homo sapiens) = TAK1/TAB1 (Homo sapiens) (UniProt Q15750+O43318); experiment: Inhibition of human TAK1 (1 to 303 residues)/TAB1 (437 to 504 residues) assessed as residual activity at 500 nM in presence of 33P-ATP by filter binding assay relative to control; type: protein-complex assay
[24] = target: Receptor-interacting serine/threonine-protein kinase 2 (Homo sapiens) (UniProt O43353); experiment: Inhibition of human RIPK2 (2 to 311 residues) at 500 nM in presence of 33P-ATP by filter binding assay relative to control
[25] = target: Vascular endothelial growth factor receptor 2 (Homo sapiens) (UniProt P35968); experiment: Inhibition of human VEGFR2 (unknown origin) at 500 nM relative to control

## Cc1cccc(-c2nc(N)sc2-c2ccc3ncccc3n2)c1
[1]
  Activity: 112%
[2]
  Activity: 136%
[3]
  Activity: 131%
[4]
  Activity: 121%
[5]
  Activity: 120%
[6]
  Activity: 118%
[7]
  Activity: 116%
[8]
  Activity: 107%
[9]
  Activity: 112%
[10]
  Activity: 112%
[11]
  Activity: 109%
[12]
  Activity: 106%
[13]
  Activity: 105%
[14]
  Activity: 104%
[15]
  Activity: 104%
[16]
  Activity: 103%
[17]
  Activity: 101%
[18]
  Activity: 101%
[19]
  Activity: 99%
[20]
  Activity: 97%
[21]
  Activity: 97%
[22]
  Activity: 81%
[23]
  Activity: 41%
TAK1/TAB1 (Homo sapiens)
  Activity: 40%
[24]
  inhibition: 70%
[25]
  inhibition: 59%
